In patent US6762174B1 (priority 1998, dated 2004):
Like-named read-outs stand apart in the source and are kept apart here.

Tests used:
[1] = DEX.10 mg IP
[2] = tested on: MT-1 breast cancer xenograft; settings: for Died of toxic effects: 8 mice
[3] = tested on: B16 melanoma; type: in vivo, female BDF1 mice; settings: for Statistically Significant Effect on Reducing Tumor Volume: cp alone
[4] = tested on: MOPC-315 myeloma; test: MOPC-315 Myeloma study #6: β-alethine ip day 9, 10 or 11, mp ip day 10 (1 × 10^6 tumor cells); settings: for Animals Surviving: mp 1.25 mg/kg d 10 alone (20 mice)
[5] = tested on: MOPC-315 myeloma; test: MOPC-315 Myeloma study #5: Melphalan + β-alethine ip day 9 (1 × 10^6 tumor cells); settings: for Tumor Size: 1.25 mg/kg mp; for Animals Surviving: mp 1.25 mg/kg
[6] = tested on: MOPC-315 myeloma; test: MOPC-315 Myeloma study #4: Melphalan + β-alethine ip day 10 (1 × 10^6 tumor cells); settings: for Animals Surviving: mp 1.25 mg/kg; for Mean Tumor Size: mp alone
[7] = mp on day 10, BT none, 20 in group

C[C@@H]1C[C@H]2[C@@H]3CCC4=CC(=O)C=C[C@]4(C)[C@@]3(F)[C@@H](O)C[C@]2(C)[C@@]1(O)C(=O)CO [DEX., dexamethasone]
Percent Body Weight Loss From Day 0 ([1]; day 1): 3.0%
Percent Body Weight Loss From Day 0 ([1]; day 5): 4.6%
Percent Body Weight Loss From Day 0 ([1]; day 6): 2.8%
Percent Body Weight Loss From Day 0 ([1]; day 7): 3.4%
Percent Body Weight Loss From Day 0 ([1]; day 8): 2.4%
Percent Body Weight Loss From Day 0 ([1]; day 9): 3.6%
Percent Body Weight Loss From Day 0 ([1]; day 10): 2.8%
Percent Body Weight Loss From Day 0 ([1]; day 11): 1.3%
Percent Body Weight Loss From Day 0 ([1]; day 12): 3.7%
Percent Body Weight Loss From Day 0 ([1]; day 13): 2.1%
Percent Body Weight Loss From Day 0 ([1]; day 21): 0.1%

O=P1(N(CCCl)CCCl)NCCCO1 (stereo not shown) [cp, cyclophosphamide]
Median Relative Tumor Volume ([2]; 100 mg/kg cp, day 42): 1
Median Relative Tumor Volume ([2]; 100 mg/kg cp, day 46): 1.37
Median Relative Tumor Volume ([2]; 100 mg/kg cp, day 49): 1.54
Median Relative Tumor Volume ([2]; 100 mg/kg cp, day 53): 1.50
Median Relative Tumor Volume ([2]; 100 mg/kg cp, day 59): 1.85
Median Relative Tumor Volume ([2]; 200 mg/kg cp, day 42): 1
Median Relative Tumor Volume ([2]; 200 mg/kg cp, day 46): 1.15
Median Relative Tumor Volume ([2]; 200 mg/kg cp, day 49): 1.11
Median Relative Tumor Volume ([2]; 200 mg/kg cp, day 53): 1.21
Median Relative Tumor Volume ([2]; 200 mg/kg cp, day 59): 1.15
Median Relative Tumor Volume ([2]; 300 mg/kg cp, day 42): 1
Median Relative Tumor Volume ([2]; 300 mg/kg cp, day 46): 1.34
Median Relative Tumor Volume ([2]; 300 mg/kg cp, day 49): 1.14
Median Relative Tumor Volume ([2]; 300 mg/kg cp, day 53): 1.15
Median Relative Tumor Volume ([2]; 300 mg/kg cp, day 59): 1.14
T/C RTV d 49 ([2]; Cp 100 mg/kg): 87%
T/C RTV d 59 ([2]; Cp 100 mg/kg): 81%
WBC d 46 ([2]; Cp 100 mg/kg): 10.3 10^6/mL
T/C RTV d 49 ([2]; Cp 200 mg/kg): 63%
T/C RTV d 59 ([2]; Cp 200 mg/kg): 50%
WBC d 46 ([2]; Cp 200 mg/kg): 5.5 10^6/mL
Last 2 readings indicate progression ([2]; Cp 300 mg/kg): 12%
Last 2 readings indicate regression ([2]; Cp 300 mg/kg): 12%
Last 2 readings stayed the same ([2]; Cp 300 mg/kg): 0%
Last reading indicates progression ([2]; Cp 300 mg/kg): 25%
Last reading indicates regression ([2]; Cp 300 mg/kg): 25%
T/C RTV d 49 ([2]; Cp 300 mg/kg): 65%
T/C RTV d 59 ([2]; Cp 300 mg/kg): 50%
WBC d 46 ([2]; Cp 300 mg/kg): 5.6 10^6/mL
Died of toxic effects ([2]; Cp 300 mg/kg): 25%
Died of toxic effects ([2]; Cp 300 mg/kg, listed as Cp): 25%
Percent of Animals with Greater than 10 Metastases ([3]; Cp 200 mg/kg): 50%
animals with 0-10 Metastases on Day 42 ([3]; Cp 200 mg/kg): 4
animals with 11-20 Metastases on Day 42 ([3]; Cp 200 mg/kg): 3
animals with 21-30 Metastases on Day 42 ([3]; Cp 200 mg/kg): 0
animals with over 30 Metastases (full of metastases) on Day 42 ([3]; Cp 200 mg/kg): 1
Primary Tumor Size (Median RTV) ([3]; cp 200 mg/kg alone, day 0): 1
Primary Tumor Size (Median RTV) ([3]; cp 200 mg/kg alone, day 4): 1.0
Primary Tumor Size (Median RTV) ([3]; cp 200 mg/kg alone, day 7): 2.4
Primary Tumor Size (Median RTV) ([3]; cp 200 mg/kg alone, day 10): 3.5
Primary Tumor Size (Median RTV) ([3]; cp 200 mg/kg alone, day 14): 12.9
Primary Tumor Size (Median RTV) ([3]; cp 200 mg/kg alone, day 17): 32.6
T/C ratio for medium tumor volume ([3]; cp 200 mg/kg alone, day 17): 82.3%
Statistically Significant Effect on Reducing Tumor Volume ([3]; DAY 7): No
Statistically Significant Effect on Reducing Tumor Volume ([3]; DAY 10): Yes
Statistically Significant Effect on Reducing Tumor Volume ([3]; DAY 14): Yes
Statistically Significant Effect on Reducing Tumor Volume ([3]; DAY 17): No

N[C@@H](Cc1ccc(N(CCCl)CCCl)cc1)C(=O)O [mp, melphalan]
Animals Surviving ([4]; test day 10): 20
Animals Surviving ([4]; test day 11): 20
Animals Surviving ([4]; test day 12): 20
Animals Surviving ([4]; test day 13): 20
Animals Surviving ([4]; test day 14): 20
Animals Surviving ([4]; test day 15): 20
Animals Surviving ([4]; test day 16): 19
Animals Surviving ([4]; test day 17): 19
Animals Surviving ([4]; test day 18): 19
Animals Surviving ([4]; test day 19): 19
Animals Surviving ([4]; test day 20): 19
Animals Surviving ([4]; test day 21): 15
Animals Surviving ([4]; test day 22): 9
Animals Surviving ([4]; test day 23): 9
Animals Surviving ([4]; test day 25): 7
Animals Surviving ([4]; test day 26): 4
Animals Surviving ([4]; test day 27): 3
Animals Surviving ([4]; test day 29): 2
Animals Surviving ([4]; test day 31): 2
day 21 tumor size ([4]; mp on day 10, BT none): 25.8 mm
day half are dead ([4]; mp on day 10, BT none): 22
cures day 21 [4, 7]: 2
deaths day 21 [4, 7]: 5
cures day 21 ([4]; mp on day 10, BT none, 20 in group, listed as melphalan): 2/20
day 21 tumor size ([4]; mp on day 10, BT none, listed as melphalan): 26 mm
Tumor Size ([5]; day 13): 20.4 mm
Tumor Size ([5]; day 16): 19.2 mm
Tumor Size ([5]; day 20): 17.0 mm
Tumor Size ([5]; day 23): 10.2 mm
Tumor Size ([5]; day 27): 0 mm
Animals Surviving ([5]; day 10): 10
Animals Surviving ([5]; day 11): 10
Animals Surviving ([5]; day 12): 10
Animals Surviving ([5]; day 13): 10
Animals Surviving ([5]; day 14): 10
Animals Surviving ([5]; day 15): 10
Animals Surviving ([5]; day 16): 10
Animals Surviving ([5]; day 17): 10
Animals Surviving ([5]; day 18): 10
Animals Surviving ([5]; day 19): 10
Animals Surviving ([5]; day 20): 9
Animals Surviving ([5]; day 21): 9
Animals Surviving ([5]; day 22): 9
Animals Surviving ([5]; day 23): 8
Animals Surviving ([5]; day 25): 8
Animals Surviving ([5]; day 26): 8
Animals Surviving ([5]; day 28): 7
Animals Surviving ([5]; day 29): 7
Animals Surviving ([5]; day 31): 7
animals in ten cured ([6]; mp 1.25 mg/kg alone): one
cure occurred, days after treatment began ([6]; mp 1.25 mg/kg alone): 19 days
Animals Surviving ([6]; day 10): 10
Animals Surviving ([6]; day 11): 8
Animals Surviving ([6]; day 12): 5
Animals Surviving ([6]; day 13): 4
Animals Surviving ([6]; day 14): 3
Animals Surviving ([6]; day 15): 3
Animals Surviving ([6]; day 16): 3
Animals Surviving ([6]; day 17): 3
Animals Surviving ([6]; day 18): 3
Animals Surviving ([6]; day 19): 3
Animals Surviving ([6]; day 20): 3
Animals Surviving ([6]; day 21): 3
Animals Surviving ([6]; day 22): 3
Animals Surviving ([6]; day 23): 3
Animals Surviving ([6]; day 25): 3
Animals Surviving ([6]; day 26): 3
Animals Surviving ([6]; day 27): 3
Animals Surviving ([6]; day 29): 3
Animals Surviving ([6]; day 31): 1
Mean Tumor Size ([6]; day 10): 22.5 mm
Mean Tumor Size ([6]; day 14): 19 mm
Mean Tumor Size ([6]; day 17): 17 mm
Mean Tumor Size ([6]; day 21): 22 mm
Mean Tumor Size ([6]; day 29): 28 mm
